Laboratory results taken from patent US20090062294A1, “HETEROARYL-SUBSTITUTED UREA MODULATORS OF FATTY ACID AMIDE HYDROLASE” (priority 2007, published 2009).

Tests used:
[1] = target: T1, rat FAAH (Rattus norvegicus, UniProt P97612); assay: Assay Method 2: FAAH assay, 3H-anandamide hydrolysis in homogenate of SK-N-MC cells transfected with rat FAAH; assay type: biochemical; settings: average of results, > = solubility limit or highest concentration tested
T1 sequence (P97612 1-579): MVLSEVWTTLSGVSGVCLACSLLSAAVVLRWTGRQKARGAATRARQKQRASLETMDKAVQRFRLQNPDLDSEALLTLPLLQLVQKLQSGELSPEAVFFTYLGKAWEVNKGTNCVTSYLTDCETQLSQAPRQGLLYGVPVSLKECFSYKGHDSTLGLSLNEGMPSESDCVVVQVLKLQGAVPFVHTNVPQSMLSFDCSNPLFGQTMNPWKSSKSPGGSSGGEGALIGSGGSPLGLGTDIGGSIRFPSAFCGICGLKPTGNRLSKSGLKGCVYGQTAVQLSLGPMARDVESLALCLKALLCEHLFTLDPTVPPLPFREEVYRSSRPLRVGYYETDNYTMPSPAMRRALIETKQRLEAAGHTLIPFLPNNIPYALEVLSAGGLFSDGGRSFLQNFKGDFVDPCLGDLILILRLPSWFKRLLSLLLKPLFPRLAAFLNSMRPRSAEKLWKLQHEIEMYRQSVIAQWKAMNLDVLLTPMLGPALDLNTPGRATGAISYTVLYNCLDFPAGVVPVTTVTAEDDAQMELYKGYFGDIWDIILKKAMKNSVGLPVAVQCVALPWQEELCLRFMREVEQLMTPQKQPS
Outline: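 Read-out is scintillation counting of [3H]-ethanolamine passing through activated charcoal, after 1 h at rt with 80 nM final [3H]-AEA. Enzyme source: lysate of G418-selected SK-N-MC clones expressing rat FAAH, homogenized in Tris/EDTA/glycerol/0.02% Triton buffer, pH 9.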

[2] = target: T2, FAAH (Homo sapiens, UniProt O00519); assay: Assay Method 1: FAAH assay, 3H-anandamide hydrolysis in homogenate of T84 cells or SK-N-MC cells transfected with human FAAH; assay type: biochemical; settings: average of results, > = solubility limit or highest concentration tested
T2 sequence (O00519 1-579): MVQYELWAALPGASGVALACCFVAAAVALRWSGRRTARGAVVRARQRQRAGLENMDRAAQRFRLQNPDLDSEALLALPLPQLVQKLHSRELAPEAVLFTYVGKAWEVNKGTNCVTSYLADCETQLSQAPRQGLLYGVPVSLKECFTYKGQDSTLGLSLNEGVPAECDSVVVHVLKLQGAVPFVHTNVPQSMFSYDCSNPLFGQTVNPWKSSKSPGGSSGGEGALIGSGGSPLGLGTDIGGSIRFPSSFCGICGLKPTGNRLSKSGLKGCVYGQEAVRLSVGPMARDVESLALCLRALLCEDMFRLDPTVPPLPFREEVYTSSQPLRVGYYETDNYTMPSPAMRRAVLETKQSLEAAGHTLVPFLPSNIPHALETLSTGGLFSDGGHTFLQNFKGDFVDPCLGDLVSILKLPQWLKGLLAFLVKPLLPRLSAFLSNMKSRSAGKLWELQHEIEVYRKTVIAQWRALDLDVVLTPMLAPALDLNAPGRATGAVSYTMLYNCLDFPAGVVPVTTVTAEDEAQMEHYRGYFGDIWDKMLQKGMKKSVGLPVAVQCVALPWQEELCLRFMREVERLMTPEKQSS
Outline: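 Hydrolysis of ^3H-anandamide (80 nM final, added last) was measured over 1 h at rt, using test compound with homogenate of T84 cells or human FAAH-transfected SK-N-MC cells. The homogenization buffer was 125 mM Tris, 1 mM EDTA, 0.02% Triton X-100, pH 9. Unbound labelled ethanolamine was passed through charcoal filters and scintillation-counted.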

Compound | IC50 [1] [nM] | IC50 [2] [nM]
O=C(Nc1noc2ccccc12)N1CCN(Cc2ccc(OCc3ccccc3)cc2)CC1 [Example 112, N-1,2-Benzisoxazol-3-yl-4-[4-(benzyloxy)benzyl]piperazine-1-carboxamide] | 270 | 40
O=C(Nc1noc2ccccc12)N1CCN(Cc2ccc3c(c2)OCO3)CC1 [Example 116, N-1,2-Benzisoxazol-3-yl-4-(1,3-benzodioxol-5-ylmethyl)piperazine-1-carboxamide] | 760 | 400
O=C(Nc1noc2ccccc12)N1CCN(Cc2cnc3ccccc3c2)CC1 [Example 117, N-1,2-Benzisoxazol-3-yl-4-(quinolin-3-ylmethyl)piperazine-1-carboxamide] | 440 | 130
O=C(Nc1noc2ccccc12)N1CCN(Cc2ccc3[nH]ccc3c2)CC1 [Example 118, N-1,2-Benzisoxazol-3-yl-4-(1H-indol-5-ylmethyl)piperazine-1-carboxamide] | 8000 | 1800
O=C(Nc1noc2ccccc12)N1CCN(Cc2ccc(Br)cc2)CC1 [Example 120, N-1,2-Benzisoxazol-3-yl-4-(4-bromobenzyl)piperazine-1-carboxamide] | 120 | 80
O=C(Nc1noc2ccccc12)N1CCN(Cc2cccc(Oc3ccccc3Cl)c2)CC1 [Example 122, N-1,2-Benzisoxazol-3-yl-4-[3-(2-chlorophenoxy)benzyl]piperazine-1-carboxamide] | 115 | 148
O=C(Nc1noc2ccccc12)N1CCN(Cc2ccc3ccccc3n2)CC1 [Example 124, 4-Quinolin-2-ylmethyl-piperazine-1-carboxylic acid benzo[d]isoxazol-3-ylamide] | 200 | 55
O=C(Nc1noc2ccccc12)N1CCN(Cc2cc3ccccc3o2)CC1 [Example 126, 4-Benzofuran-2-ylmethyl-piperazine-1-carboxylic acid benzo[d]isoxazol-3-ylamide] | 200 | 60
N#Cc1ccc(Oc2cccc(CN3CCN(C(=O)Nc4noc5ccccc45)CC3)c2)cc1C(F)(F)F [Example 128, N-1,2-Benzisoxazol-3-yl-4-{3-[4-cyano-3-(trifluoromethyl)phenoxy]benzyl}piperazine-1-carboxamide] | 400 | 230
N#Cc1cccc(Oc2cccc(CN3CCN(C(=O)Nc4noc5ccccc45)CC3)c2)c1 [Example 129, N-1,2-Benzisoxazol-3-yl-4-[3-(3-cyanophenoxy)benzyl]piperazine-1-carboxamide] | 120 | 80
O=C(Nc1noc2ccccc12)N1CCN(Cc2cccc(C#Cc3ccccc3)c2)CC1 [Example 133, N-1,2-Benzisoxazol-3-yl-4-{[3-(phenylethynyl)phenyl]methyl}piperazine-1-carboxamide] | 115 | 24
O=C(Nc1ccon1)N1CCN(Cc2cccc(Oc3ccc(OC(F)(F)F)cc3)c2)CC1 [Example 134, N-Isoxazol-3-yl-4-{3-[4-(trifluoromethoxy)phenoxy]benzyl}piperazine-1-carboxamide] | 100 | 10
O=C(Nc1ccon1)N1CCN(Cc2cccc(Oc3cccc(Cl)c3)c2)CC1 [Example 136, 4-[3-(3-Chlorophenoxy)benzyl]-N-isoxazol-3-ylpiperazine-1-carboxamide] | 1000 | 55

Stronger by IC50 [1], values ahead:

IC50 [1] [nM] | IC50 [2] [nM] | Compound
50 | 140 | O=C(Nc1noc2ccccc12)N1CCN(Cc2ccc(OC(F)(F)F)c(F)c2)CC1 [Example 108, N-1,2-Benzisoxazol-3-yl-4-[3-fluoro-4-(trifluoromethoxy)benzyl]-piperazine-1-carboxamide]
42 | 45 | O=C(Nc1noc2ccccc12)N1CCN(Cc2cccc(Oc3ccccc3)c2)CC1 [Example 110, N-1,2-Benzisoxazol-3-yl-4-(3-phenoxybenzyl)piperazine-1-carboxamide]
40 | 35 | O=C(Nc1noc2ccccc12)N1CCN(Cc2ccc(Cl)c(Cl)c2)CC1 [Example 111, N-1,2-Benzisoxazol-3-yl-4-(3,4-dichlorobenzyl)piperazine-1-carboxamide]
40 | 20 | O=C(Nc1noc2ccccc12)N1CCN(Cc2ccc3ccccc3c2)CC1 [Example 123, 4-Naphthalen-2-ylmethyl-piperazine-1-carboxylic acid benzo[d]isoxazol-3-ylamide]
40 | 40 | O=C(Nc1noc2ccccc12)N1CCN(Cc2cccc(Oc3cccc(Cl)c3)c2)CC1 [Example 127, N-1,2-Benzisoxazol-3-yl-4-[3-(3-chlorophenoxy)benzyl]piperazine-1-carboxamide]
37 | 80 | O=C(Nc1noc2ccccc12)N1CCN(Cc2ccc(OC(F)(F)F)c(Cl)c2)CC1 [Example 107, N-1,2-Benzisoxazol-3-yl-4-[3-chloro-4-(trifluoromethoxy)benzyl]-piperazine-1-carboxamide]
30 | 20 | O=C(Nc1noc2ccccc12)N1CCN(Cc2cc3ccccc3s2)CC1 [Example 113, N-1,2-Benzisoxazol-3-yl-4-(1-benzothiophen-2-ylmethyl)piperazine-1-carboxamide]
27 | 80 | O=C(Nc1noc2ccccc12)N1CCN(Cc2ccc(F)c(OC(F)(F)F)c2)CC1 [Example 106, N-1,2-Benzisoxazol-3-yl-4-[4-fluoro-3-(trifluoromethoxy)benzyl]-piperazine-1-carboxamide]
25 | 40 | O=C(Nc1noc2ccccc12)N1CCN(Cc2ccc(Br)c(F)c2)CC1 [Example 115, N-1,2-Benzisoxazol-3-yl-4-(4-bromo-3-fluorobenzyl)piperazine-1-carboxamide]
25 | 17 | O=C(Nc1noc2ccccc12)N1CCN(Cc2ccc(Br)c(Br)c2)CC1 [Example 121, N-1,2-Benzisoxazol-3-yl-4-(3,4-dibromobenzyl)piperazine-1-carboxamide]
20 | 20 | O=C(Nc1noc2ccccc12)N1CCN(Cc2cccc(Oc3ccc4ncccc4c3)c2)CC1 [Example 114, N-1,2-Benzisoxazol-3-yl-4-[3-(quinolin-6-yloxy)benzyl]piperazine-1-carboxamide]
12 | 15 | N#Cc1ccc(Oc2cccc(CN3CCN(C(=O)Nc4noc5ccccc45)CC3)c2)cc1 [Example 125, 4-[3-(4-Cyano-phenoxy)-benzyl]-piperazine-1-carboxylic acid benzo[d]isoxazol-3-ylamide]
9 | 45 | O=C(Nc1noc2ccccc12)N1CCN(Cc2cccc(Oc3ccc4ccccc4c3)c2)CC1 [Example 119, N-1,2-Benzisoxazol-3-yl-4-[3-(naphthalen-2-yloxy)benzyl]piperazine-1-carboxamide]
5 | 23 | O=C(Nc1noc2ccccc12)N1CCN(Cc2cccc(Oc3ccc(S(=O)(=O)C(F)(F)F)cc3)c2)CC1 [Example 132, N-1,2-Benzisoxazol-3-yl-4-(3-{4-[(trifluoromethyl)sulfonyl]phenoxy}-benzyl)piperazine-1-carboxamide]
4 | 20 | O=C(Nc1noc2ccccc12)N1CCN(Cc2cccc(Oc3ccc(SC(F)(F)F)cc3)c2)CC1 [Example 130, N-1,2-Benzisoxazol-3-yl-4-(3-{4-[(trifluoromethyl)sulfanyl]phenoxy}-benzyl)piperazine-1-carboxamide]
4 | 7 | O=C(Nc1noc2ccccc12)N1CCN(Cc2cccc(Oc3ccc4c(c3)OC(F)(F)O4)c2)CC1 [Example 131, N-1,2-Benzisoxazol-3-yl-4-{3-[(2,2-difluoro-1,3-benzodioxol-5-yl)oxy]benzyl}piperazine-1-carboxamide]
